Assays:
Format in all cases: in vivo
[1] = test system: AMBROSIA ARTEMISIIFOLIA, L.; assay: Preemergence herbicidal evaluation, AMBEL (Ragweed, Common); details: rated four to five weeks after treatment
Source text: (§1) Results of herbicide evaluation are expressed on a rating scale (0-9). The scale is based upon a visual observation of plant stand, vigor, malformation, size, chlorosis and overall plant appearance as compared with a control.
(§2) The preemergence herbicidal activity of the test compounds of the present invention is exemplified by the following tests in which the seeds of a variety of monocotyledonous and dicotyledonous plants are separately mixed with potting soil and planted on top of approximately one inch of soil in separate pint cups. […] The treated cups are then placed on greenhouse benches, watered and cared for in accordance with conventional greenhouse procedures. From four to five weeks after treatment, the tests are terminated and each cup is examined and rated according to the rating system provided in Example 40.
(§3) The compounds evaluated are reported by compound number given in Example 40.

CASSIA OBTUSIFOLIA, L. = assay: Preemergence herbicidal evaluation, CASOB (Sicklepod); details: rated four to five weeks after treatment
Source text: as §1, §2, §3

IPOMOEA SPP. = assay: Preemergence herbicidal evaluation, IPOSS (Morningglory spp.); details: rated four to five weeks after treatment
Source text: as §1, §2, §3

GALIUM APARINE = assay: Preemergence herbicidal evaluation, GALAP (Galium); details: rated four to five weeks after treatment
Source text: as §1, §2, §3

[2] = test system: TRITICUM AESTIVUM, CV. APOLLO; assay: Preemergence herbicidal evaluation, TRZAWO (Wheat, Winter, CV. APOLLO); details: rated four to five weeks after treatment
Source text: as §1, §2, §3

[3] = test system: CYPERUS SEROTINUS, ROTTB.; assay: Preemergence weed control under flooded paddy conditions, CYPSE (Flatsedge); details: preemergence, 3-4 weeks after treatment
Method in brief: (§4)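 Seeds or propagules were planted 0.5 cm deep in silt loam, with flood water held at 1.5 to 3 cm. Compound in 50/50 aqueous/acetone was pipetted into the flood water at about 0.5, 0.25, 0.125 and 0.063 kg/ha. Injury was rated visually on a 0-9 scale against a control 3-4 weeks after treatment.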

SAGITTARIA PYGMAEA, L. = assay: Preemergence weed control under flooded paddy conditions, SAGPY (Arrowhead (Pygmaea)); details: preemergence, 3-4 weeks after treatment
Method in brief: as §4

[4] = test system: ORYZA SATIVA, L. TEBONNET; assay: Rice tolerance to post-transplant applications under flooded paddy conditions, ORYSAT (Rice, Tebonnet); details: post-transplant rice, 3-4 weeks after treatment
Method in brief: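 Two ten-day-old Tebonnet rice seedlings transplanted into silt loam, flooded 1.5–3 cm; three days later the water surface treated with compounds in acetone/water at about 0.5, 0.25, 0.125 and 0.063 kg/ha. Visual 0–9 injury rating versus control after 3–4 weeks in greenhouse.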

[5] = test system: SETARIA VIRIDIS, (L) BEAU; assay: Postemergence herbicidal evaluation, SETVI (Foxtail, Green); parameters: key to SETVI rating / Herbicidal effect rating, SETVI / SETVI: 0-9 visual rating scale vs untreated control
Method in brief: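 Greenhouse postemergence test. Seedlings (~2 wk) sprayed at 40 psi; dose ~0.125–0.500 kg/ha in acetone/water (1:1), 0.5% TWEEN 20. Scored 0–9 at 4–5 wk.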

CHENOPODIUM ALBUM, L. = assay: Preemergence herbicidal evaluation, CHEAL (Lambsquarters, Common); details: rated four to five weeks after treatment
Method in brief: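 Greenhouse preemergence test; treated soil cups received compound in aqueous acetone (about 0.125 to 0.50 kg/ha) right after sowing and were assessed visually 4-5 weeks later on a 0-9 scale compared with control plants.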

[6] = test system: ECHINOCHLOA CRUS-GALLI, (L) BEAU; assay: Preemergence herbicidal evaluation, ECHCG (Barnyardgrass); details: rated four to five weeks after treatment
Source text: as §1, §2, §3

[7] = test system: GLYCINE MAX(L) MERR. CV. WILLIAMS; assay: Preemergence herbicidal evaluation, GLXMAW (Soybean, Williams); details: rated four to five weeks after treatment
Source text: as §1, §2, §3

ZEA MAYS L. = assay: Preemergence herbicidal evaluation, ZEAMX (Corn, Field); details: rated four to five weeks after treatment
Source text: as §1, §2, §3

[8] = test system: ECHINOCHLOA ORYZOIDES (ARD.)FRITSCH; assay: Preemergence weed control under flooded paddy conditions, ECHORC (Watergrass (Calif.)); details: preemergence, 3-4 weeks after treatment
Method in brief: as §4

[…], PRESL. = Preemergence weed control under flooded paddy conditions, MOOVA (Monochoria); details: preemergence, 3-4 weeks after treatment
Method in brief: as §4

Cn1c(=O)n(CC(=O)OC(C)(C)C)c(=O)n(-c2cc(Oc3ccc(C(F)(F)F)cc3Cl)ccc2Cl)c1=O [Compound 40, Tert-butyl 3-{[2-chloro-5-(2-chloro-α,α,α-trifluoro-p-tolyl)oxy]phenyl}tetrahydro-5-methyl-2,4,6-trioxo-s-triazine-1(2H)-acetate]
1.5: Herbicidal effect rating, ORYSAT ([4]; 0.250 kg/ha) | Herbicidal effect rating, ORYSAT ([4]; 0.500 kg/ha)
1.0: CASOB herbicidal rating (CASSIA OBTUSIFOLIA, L.; Rate 0.125 kg/ha) | CASOB herbicidal rating (CASSIA OBTUSIFOLIA, L.; Rate 0.250 kg/ha)
0.5: IPOSS herbicidal rating (IPOMOEA SPP.; Rate 0.125 kg/ha) | IPOSS herbicidal rating (IPOMOEA SPP.; Rate 0.250 kg/ha) | Herbicidal effect rating, ORYSAT ([4]; 0.063 kg/ha) | Herbicidal effect rating, ORYSAT ([4]; 0.125 kg/ha)
0.0: AMBEL herbicidal rating ([1]; Rate 0.125 kg/ha) | AMBEL herbicidal rating ([1]; Rate 0.250 kg/ha) | TRZAWO herbicidal rating ([2]; Rate 0.125 kg/ha) | TRZAWO herbicidal rating ([2]; Rate 0.250 kg/ha) | Herbicidal effect rating, CYPSE ([3]; 0.063 kg/ha) | Herbicidal effect rating, CYPSE ([3]; 0.125 kg/ha) | Herbicidal effect rating, CYPSE ([3]; 0.250 kg/ha) | Herbicidal effect rating, CYPSE ([3]; 0.500 kg/ha) | Herbicidal effect rating, SAGPY (SAGITTARIA PYGMAEA, L.; 0.063 kg/ha) | Herbicidal effect rating, SAGPY (SAGITTARIA PYGMAEA, L.; 0.125 kg/ha) | Herbicidal effect rating, SAGPY (SAGITTARIA PYGMAEA, L.; 0.250 kg/ha) | Herbicidal effect rating, SAGPY (SAGITTARIA PYGMAEA, L.; 0.500 kg/ha)
4.5: GALAP herbicidal rating (GALIUM APARINE; Rate 0.125 kg/ha) | GALAP herbicidal rating (GALIUM APARINE; Rate 0.250 kg/ha)

Cn1c(=O)n(CC(N)=O)c(=O)n(-c2cc(Oc3ncc(C(F)(F)F)cc3Cl)ccc2Br)c1=O [Compound 42]
2.0: Herbicidal effect rating, ORYSAT ([4]; 0.500 kg/ha)
0.0: CASOB herbicidal rating (CASSIA OBTUSIFOLIA, L.; Rate 0.125 kg/ha) | CASOB herbicidal rating (CASSIA OBTUSIFOLIA, L.; Rate 0.250 kg/ha) | CASOB herbicidal rating (CASSIA OBTUSIFOLIA, L.; Rate 0.500 kg/ha) | IPOSS herbicidal rating (IPOMOEA SPP.; Rate 0.125 kg/ha) | IPOSS herbicidal rating (IPOMOEA SPP.; Rate 0.250 kg/ha) | IPOSS herbicidal rating (IPOMOEA SPP.; Rate 0.500 kg/ha) | ECHCG herbicidal rating ([6]; Rate 0.125 kg/ha) | ECHCG herbicidal rating ([6]; Rate 0.250 kg/ha) | ECHCG herbicidal rating ([6]; Rate 0.500 kg/ha) | GLXMAW herbicidal rating ([7]; Rate 0.125 kg/ha) | GLXMAW herbicidal rating ([7]; Rate 0.250 kg/ha) | GLXMAW herbicidal rating ([7]; Rate 0.500 kg/ha) | ZEAMX herbicidal rating (ZEA MAYS L.; Rate 0.125 kg/ha) | ZEAMX herbicidal rating (ZEA MAYS L.; Rate 0.250 kg/ha) | ZEAMX herbicidal rating (ZEA MAYS L.; Rate 0.500 kg/ha) | Herbicidal effect rating, ECHORC ([8]; 0.250 kg/ha) | Herbicidal effect rating, ECHORC ([8]; 0.500 kg/ha) | Herbicidal effect rating, CYPSE ([3]; 0.250 kg/ha) | Herbicidal effect rating, CYPSE ([3]; 0.500 kg/ha) | Herbicidal effect rating, MOOVA ([…], PRESL.; 0.250 kg/ha) | Herbicidal effect rating, MOOVA ([…], PRESL.; 0.500 kg/ha) | Herbicidal effect rating, SAGPY (SAGITTARIA PYGMAEA, L.; 0.250 kg/ha) | Herbicidal effect rating, SAGPY (SAGITTARIA PYGMAEA, L.; 0.500 kg/ha)
9.0: CHEAL herbicidal rating (CHENOPODIUM ALBUM, L.; Rate 0.125 kg/ha) | CHEAL herbicidal rating (CHENOPODIUM ALBUM, L.; Rate 0.250 kg/ha) | CHEAL herbicidal rating (CHENOPODIUM ALBUM, L.; Rate 0.500 kg/ha)
1.0: SETVI rating ([5]; Rate 0.125 kg/ha) | SETVI rating ([5]; Rate 0.250 kg/ha) | SETVI rating ([5]; Rate 0.500 kg/ha) | Herbicidal effect rating, ORYSAT ([4]; 0.250 kg/ha)
